Measured values as given in patent US10934310B2, “Inhibitors of Bruton's tyrosine kinase and method of their use” (JANSSEN PHARMACEUTICA NV, priority 2015, dated 2021).

biological target: unphosphorylated-BTK kinase domain (UP-BTK), GST-tagged human BTK (389-659aa) (Homo sapiens (Human), UniProt Q06187); assay: BTK Kinase Lanthascreen Binding Assay; settings: compound, 50 nM Tracer 236, 2 nM anti-GST antibody, 60 minutes; pIC50 = negative log of the IC50 in molar
Procedure: BTK Kinase Lanthascreen Binding Assay:
A BTK kinase lanthascreen binding assay monitors compound binding to unphosphorylated-BTK kinase domain (UP-BTK), by competing with a fluorescent labeled tracer. […] Data were analyzed using Xlfit™ version 5.3 from ID Business Solutions (Guildford), Microsoft Excel add-in. pIC50 refers to the negative log of the IC50 in molar.

unphosphorylated-BTK kinase domain (UP-BTK), GST-tagged human BTK (389-659aa), sequence (Q06187 389-659): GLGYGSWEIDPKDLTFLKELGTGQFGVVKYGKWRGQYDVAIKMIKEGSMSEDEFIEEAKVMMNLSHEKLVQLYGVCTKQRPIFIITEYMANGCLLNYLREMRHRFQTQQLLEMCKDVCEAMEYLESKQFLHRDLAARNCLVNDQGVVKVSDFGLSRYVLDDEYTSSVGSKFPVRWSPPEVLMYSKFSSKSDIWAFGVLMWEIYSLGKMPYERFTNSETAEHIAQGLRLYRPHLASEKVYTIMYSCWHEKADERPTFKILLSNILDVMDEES

First: C=CC(=O)N[C@H]1CCC[C@H]1NC(=O)c1sc2nccc3c2c1NC(=O)N3c1ccnc(C(C)C)c1 [Example 207, N-((1R,2S)-2-Acrylamidocyclopentyl)-5-(2-isopropylpyridin-4-yl)-4-oxo-4,5-dihydro-3H-1-thia-3,5,8-triazaacenaphthylene-2-carboxamide]
Second: C=CC(=O)N[C@@H]1CCCC[C@H]1NC(=O)c1sc2nccc3c2c1NC(=O)N3c1ccnc(-c2ccccc2)c1 [Example 227, N-((1R,2R)-2-Acrylamidocyclohexyl)-4-oxo-5-(2-phenylpyridin-4-yl)-4,5-dihydro-3H-1-thia-3,5,8-triazaacenaphthylene-2-carboxamide]
The “BTK_I_binding pIC50” value of the first is higher: 7.53 for the first, 6.76 for the second.

Going from `C=CC(=O)N[C@H]1CCCC[C@H]1NC(=O)c1sc2nccc3c2c1NC(=O)N3c1ccc(OC(C)C)nc1C` [Example 211, N-((1R,2S)-2-Acrylamidocyclohexyl)-5-(6-isopropoxy-2-methylpyridin-3-yl)-4-oxo-4,5-dihydro-3H-1-thia-3,5,8-triazaacenaphthylene-2-carboxamide] to `C=CC(=O)N[C@H]1CCCC[C@H]1NC(=O)c1sc2nccc3c2c1NC(=O)N3c1cnc(OCC(C)C)cc1C` [Example 225, N-((1R,2S)-2-Acrylamidocyclohexyl)-5-(6-isobutoxy-4-methylpyridin-3-yl)-4-oxo-4,5-dihydro-3H-1-thia-3,5,8-triazaacenaphthylene-2-carboxamide], the “BTK_I_binding pIC50” value rises from 6.92 to 7.66.

First: C=CC(=O)N[C@@H]1CC[C@@H](NC(=O)c2sc3nccc4c3c2NC(=O)N4c2ccnc(-c3ccccc3)c2)C1 [Example 212, N-((1R,3R)-3-Acrylamidocyclopentyl)-4-oxo-5-(2-phenylpyridin-4-yl)-4,5-dihydro-3H-1-thia-3,5,8-triazaacenaphthylene-2-carboxamide]
Second: C=CC(=O)N[C@@H]1CCC[C@@H](NC(=O)c2sc3nccc4c3c2NC(=O)N4c2ccnc(-c3ccccc3)c2)C1 [Example 232, N-((1R,3R)-3-Acrylamidocyclohexyl)-4-oxo-5-(2-phenylpyridin-4-yl)-4,5-dihydro-3H-1-thia-3,5,8-triazaacenaphthylene-2-carboxamide]
The “BTK_I_binding pIC50” value of the first is higher: 7.49 for the first, 7.05 for the second.

First: Cc1cc(Oc2ccccc2)ccc1N1C(=O)Nc2c(C(=O)N[C@@H]3CC[C@@H](NC(=O)CN(C)C)C3)sc3nccc1c23 [Example 217, N-((1R,3R)-3-(2-(Dimethylamino)acetamido)cyclopentyl)-5-(2-methyl-4-phenoxyphenyl)-4-oxo-4,5-dihydro-3H-1-thia-3,5,8-triazaacenaphthylene-2-carboxamide]
Second: Cc1cc(Oc2ccccc2)ccc1N1C(=O)Nc2c(C(=O)N[C@H]3CC[C@H](NC(=O)CN(C)C)C3)sc3nccc1c23 [Example 245, N-((1S,3S)-3-(2-(Dimethylamino)acetamido)cyclopentyl)-5-(2-methyl-4-phenoxyphenyl)-4-oxo-4,5-dihydro-3H-1-thia-3,5,8-triazaacenaphthylene-2-carboxamide]
The “BTK_I_binding pIC50” value of the first is higher: 7.44 for the first, 6.73 for the second.

Compared with `C=CC(=O)N[C@@H]1CCCC[C@H]1NC(=O)c1sc2nccc3c2c1NC(=O)N3c1ccc(Oc2ccccc2)cn1` [Example 218, N-((1R,2R)-2-Acrylamidocyclohexyl)-4-oxo-5-(5-phenoxypyridin-2-yl)-4,5-dihydro-3H-1-thia-3,5,8-triazaacenaphthylene-2-carboxamide], `C=CC(=O)N[C@@H]1CCCC[C@H]1NC(=O)c1sc2nccc3c2c1NC(=O)N3c1ccc(Oc2ccccc2)nc1` [Example 239, N-((1R,2R)-2-Acrylamidocyclohexyl)-4-oxo-5-(6-phenoxypyridin-3-yl)-4,5-dihydro-3H-1-thia-3,5,8-triazaacenaphthylene-2-carboxamide] is lower in “BTK_I_binding pIC50” value: 6.76 for the first, 6.47 for the second.

Going from `C=CC(=O)N[C@H]1CCC[C@H]1NC(=O)c1sc2nccc3c2c1NC(=O)N3c1ccc(Oc2ccccn2)cc1C` [Example 220, N-((1R,2S)-2-acrylamidocyclopentyl)-5-(2-methyl-4-(pyridin-2-yloxy)phenyl)-4-oxo-4,5-dihydro-3H-1-thia-3,5,8-triazaacenaphthylene-2-carboxamide] to `C=CC(=O)N[C@H]1CCC[C@H]1NC(=O)c1sc2nccc3c2c1NC(=O)N3c1ccc(Oc2ncccn2)cc1C` [Example 224, N-((1R,2S)-2-acrylamidocyclopentyl)-5-(2-methyl-4-(pyrimidin-2-yloxy)phenyl)-4-oxo-4,5-dihydro-3H-1-thia-3,5,8-triazaacenaphthylene-2-carboxamide], the “BTK_I_binding pIC50” value falls from 8.16 to 7.46.

Going from `C=CC(=O)N[C@H]1CCCC[C@H]1NC(=O)c1sc2nccc3c2c1NC(=O)N3c1cnc(OC2CCCC2)cc1C` [Example 223, N-((1R,2S)-2-Acrylamidocyclohexyl)-5-(6-(cyclopentyloxy)-4-methylpyridin-3-yl)-4-oxo-4,5-dihydro-3H-1-thia-3,5,8-triazaacenaphthylene-2-carboxamide] to `C=CC(=O)N[C@H]1CCC[C@H]1NC(=O)c1sc2nccc3c2c1NC(=O)N3c1ccc(OC2CCOCC2)cc1` [Example 234, N-((1R,2S)-2-Acrylamidocyclopentyl)-4-oxo-5-(4-((tetrahydro-2H-pyran-4-yl)oxy)phenyl)-4,5-dihydro-3H-1-thia-3,5,8-triazaacenaphthylene-2-carboxamide], the “BTK_I_binding pIC50” value falls from 7.81 to 6.76.

`CC(=O)N[C@@H]1CC[C@@H](NC(=O)c2sc3nccc4c3c2NC(=O)N4c2ccc(Oc3ccccc3)cc2C)C1` [Example 228, N-((1R,3R)-3-Acetamidocyclopentyl)-5-(2-methyl-4-phenoxyphenyl)-4-oxo-4,5-dihydro-3H-1-thia-3,5,8-triazaacenaphthylene-2-carboxamide] and `Cc1cc(Oc2ccccc2)ccc1N1C(=O)Nc2c(C(=O)N[C@@H]3CC[C@@H](NC(=O)CN)C3)sc3nccc1c23` [Example 235, N-((1R,3R)-3-(2-Aminoacetamido)cyclopentyl)-5-(2-methyl-4-phenoxyphenyl)-4-oxo-4,5-dihydro-3H-1-thia-3,5,8-triazaacenaphthylene-2-carboxamide] are within 0.2 log units of each other in “BTK_I_binding pIC50” value: 7.34 for the first, 7.44 for the second.

Going from `CNCC(=O)N[C@@H]1CC[C@@H](NC(=O)c2sc3nccc4c3c2NC(=O)N4c2ccc(Oc3ccccc3)cc2C)C1` [Example 229, 5-(2-Methyl-4-phenoxyphenyl)-N-((1R,3R)-3-(2-(methylamino)acetamido)cyclopentyl)-4-oxo-4,5-dihydro-3H-1-thia-3,5,8-triazaacenaphthylene-2-carboxamide] to `CNCC(=O)N[C@H]1CC[C@H](NC(=O)c2sc3nccc4c3c2NC(=O)N4c2ccc(Oc3ccccc3)cc2C)C1` [Example 246, 5-(2-Methyl-4-phenoxyphenyl)-N-((1S,3S)-3-(2-(methylamino)acetamido)cyclopentyl)-4-oxo-4,5-dihydro-3H-1-thia-3,5,8-triazaacenaphthylene-2-carboxamide], the “BTK_I_binding pIC50” value falls from 7.29 to 6.84.

Going from `Cc1cc(Oc2ccccc2)ccc1N1C(=O)Nc2c(C(=O)N[C@@H]3CC[C@@H](N)C3)sc3nccc1c23` [Example 236, N-((1R,3R)-3-Aminocyclopentyl)-5-(2-methyl-4-phenoxyphenyl)-4-oxo-4,5-dihydro-3H-1-thia-3,5,8-triazaacenaphthylene-2-carboxamide] to `N[C@H]1CCCC[C@H]1NC(=O)c1sc2nccc3c2c1NC(=O)N3c1ccc(Oc2ccccc2)nc1` [Example 257, N-((1R,2S)-2-Aminocyclohexyl)-4-oxo-5-(6-phenoxypyridin-3-yl)-4,5-dihydro-3H-1-thia-3,5,8-triazaacenaphthylene-2-carboxamide], the “BTK_I_binding pIC50” value falls from 7.00 to 6.47.

`CN(C)C/C=C/C(=O)N[C@@H]1CC[C@H](NC(=O)c2sc3nccc4c3c2NC(=O)N4c2ccc(Oc3ccccc3)c(Cl)c2)C1` [Example 248, 5-(3-Chloro-4-phenoxyphenyl)-N-((1S,3R)-3-((E)-4-(dimethylamino)but-2-enamido)cyclopentyl)-4-oxo-4,5-dihydro-3H-1-thia-3,5,8-triazaacenaphthylene-2-carboxamide] and `N[C@H]1CCC[C@H]1NC(=O)c1sc2nccc3c2c1NC(=O)N3c1cccc(-c2ccccc2)c1` [Example 249, 5-([1,1′-Biphenyl]-3-yl)-N-((1R,2S)-2-aminocyclopentyl)-4-oxo-4,5-dihydro-3H-1-thia-3,5,8-triazaacenaphthylene-2-carboxamide] are within 0.2 log units of each other in “BTK_I_binding pIC50” value: 6.98 for the first, 6.90 for the second.

In the case of `N[C@H]1CCCC[C@H]1NC(=O)c1sc2nccc3c2c1NC(=O)N3c1ccnc(-c2ccccc2)c1` [Example 260, N-((1R,2S)-2-Aminocyclohexyl)-4-oxo-5-(2-phenylpyridin-4-yl)-4,5-dihydro-3H-1-thia-3,5,8-triazaacenaphthylene-2-carboxamide], the “BTK_I_binding pIC50” value is reported as 6.45.

same assay, conditions: read-out: BTK_I_binding pIC50 (converted)

`C=CC(=O)N[C@H]1CC[C@@H](NC(=O)c2sc3nccc4c3c2NC(=O)N4c2ccnc(-c3ccccc3)c2)C1` [Example 208, N-((1R,3S)-3-Acrylamidocyclopentyl)-4-oxo-5-(2-phenylpyridin-4-yl)-4,5-dihydro-3H-1-thia-3,5,8-triazaacenaphthylene-2-carboxamide] and `CC(=O)N[C@@H]1CCC[C@@H]1NC(=O)c1sc2nccc3c2c1NC(=O)N3c1ccnc(-c2ccccc2)c1` [Example 258, N-((1S,2R)-2-Acetamidocyclopentyl)-4-oxo-5-(2-phenylpyridin-4-yl)-4,5-dihydro-3H-1-thia-3,5,8-triazaacenaphthylene-2-carboxamide] cannot be ordered by IC50: > 1000 nM for the first, > 1000 nM for the second.
